Assays:
Beclin 1 gene = Beclin 1 gene expression promoting effect in human senescent fibroblasts (quantitative real-time PCR); format: cell-based
Experimental: Senescent fibroblasts were prepared by the following procedure.
(§1) Normal human fibroblasts (NB1RGB, RIKEN BRC Cell Bank) were cultured until confluent in D-MEM medium (manufactured by Sigma-Aldrich) to which 10% fetal bovine serum (manufactured by MP Biomedicals) was added. Thereafter, the cells were treated with 250 μM aqueous hydrogen peroxide for 2 hours, and cultured for 24 hours in D-MEM medium to which fresh 10% fetal bovine serum was added. The treatment with aqueous hydrogen peroxide and the cell culture operation were repeated three times, and the obtained fibroblasts were used as senescent fibroblasts.
(§2) The prepared senescent fibroblasts were prepared at a seeding density of 10000 cells/cm^2 and cultured for 24 hours in D-MEM medium (manufactured by Sigma-Aldrich) to which 10% fetal bovine serum (manufactured by MP Biomedicals) was added. […]
(§3) Then, using Nucleospin (registered trademark) RNA kit (manufactured by Takara Bio Inc.), RNA was extracted from senescent fibroblasts or normal human fibroblasts in each example, and cDNA was synthesized from the obtained RNA. Next, using this cDNA as a template, by quantitative real-time PCR, the expression level of each gene was quantified using primers (manufactured by Takara Bio Inc.) specific to the LC3 gene, ATG5 gene, and Beclin 1 gene, respectively. […]

mTOR gene = mTOR gene expression suppression effect in human senescent fibroblasts (quantitative real-time PCR); format: cell-based
Experimental: as §1
as §2, with “added. Next, in Example 8, the inositol derivative A dissolved in purified water was added to the medium such that the final concentration of the inositol derivative A was 10-4% (V/V).” for “added.”
as §3, with “of mTOR” for “of each”, “to mTOR gene.” for “to the LC3 gene, ATG5 gene, and Beclin 1 gene, respectively.”

O[C@H]1[C@H](O)[C@@H](O)[C@H](O)[C@@H](O)[C@H]1O [Comparative Example 2, myo-inositol]
Relative gene expression level Beclin 1 (Beclin 1 gene; 24 hours, 10^−3% (V/V) inositol or inositol derivative A, with the vitamin derivative of the example where added, GAPDH-standardized, Comparative Example 1 (purified water) = 1.00): 1.30 | expression level of the Beclin 1 gene, in words (Beclin 1 gene; compared to Comparative Example 1 (purified water only)): more increased | Relative gene expression level mTOR (mTOR gene; 24 hours, 10^−3% (V/V) inositol or inositol derivative A, with the vitamin derivative of the example where added, GAPDH-standardized, Comparative Example 3 (purified water) = 1.00): 0.95 | expression level of the mTOR gene, in words (mTOR gene; compared to Comparative Example 3 (purified water only)): almost the same

From patent US20230364119A1, “AUTOPHAGY ACTIVATOR” (Resonac Corporation, priority 2020, published 2023)
